Test results: patent publication US20250382332A1, “NOVEL ALPHA-FACTOR BASED PEPTIDES WITH ANTIFUNGAL ACTIVITY” (INVAIO SCIENCES, INC., priority 2024, published 2025)
Peptide text beside a SMILES is read from it.

Tested on: Botrytis cinerea (B05.10)
Assay: Resazurin antifungal assay of 180 alpha-factor peptide variants towards Botrytis (Example 2)
Format: cell-based
Parameters: key to active against Botrytis at 15 μM / active against Botrytis at 10 μM: Peptides that showed greater than 90% inhibition were considered active against Botrytis
Details: for Inhibition at 10 μM / Inhibition at 15 μM / Inhibition at 20 μM / Inhibition at 50 μM / Inhibition at 100 μM: % inhibition of fungal growth, Botrytis conidia, resazurin; for Inhibition at 10 μM: peptide 10 μM; for Inhibition at 15 μM / active against Botrytis at 15 μM: peptide 15 μM; for Inhibition at 20 μM: peptide 20 μM; for Inhibition at 50 μM: peptide 50 μM; for Inhibition at 100 μM: peptide 100 μM
How it was run: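 Resazurin viability read-out (570/620 nm fluorescence) after a 24 h, 20° C incubation of B05.10 conidia, 5000 per well, with peptide at final 10-100 μM. Growth inhibition (%) was derived by subtracting conidia-only fluorescence; four replicates per treatment.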

Structure (SMILES) | Inhibition at 10 μM [%] | Inhibition at 15 μM [%] | Inhibition at 20 μM [%] | Inhibition at 50 μM [%] | Inhibition at 100 μM [%] | active against Botrytis at 15 μM
CSCC[C@H](NC(=O)[C@@H]1CCCN1C(=O)[C@H](CCC(N)=O)NC(=O)CNC(=O)[C@@H]1CCCN1C(=O)[C@H](CCCCN)NC(=O)[C@H](Cc1ccccc1)NC(=O)[C@H](CCCNC(=N)N)NC(=O)[C@H](CC(C)C)NC(=O)[C@@H](NC(=O)[C@H](Cc1c[nH]cn1)NC(=O)[C@@H](N)CCCCN)C(C)C)C(=O)N[C@@H](Cc1ccc(O)cc1)C(=O)O [compound 12] (H-KHVLRFKPGQPMY-OH; N-terminus and C-terminus assumed) | <90 | 98.79 | 99.94 | 100 | 100 | active
CC[C@H](C)[C@H](NC(=O)[C@H](Cc1c[nH]c2ccccc12)NC(=O)[C@H](Cc1c[nH]cn1)NC(=O)[C@@H](N)Cc1c[nH]c2ccccc12)C(=O)N[C@@H](CC(N)=O)C(=O)N[C@@H](CC(C)C)C(=O)N[C@@H](Cc1c[nH]c2ccccc12)C(=O)N1CCC[C@H]1C(=O)NCC(=O)N[C@@H](CCC(N)=O)C(=O)N1CCC[C@H]1C(=O)N[C@@H](CCSC)C(=O)N[C@@H](Cc1ccc(O)cc1)C(=O)O [compound 114] (H-WHWINLWPGQPMY-OH; N-terminus and C-terminus assumed) |  |  |  | <90 | 100 | 
CSCC[C@H](NC(=O)[C@@H]1CCCN1C(=O)[C@H](CCC(N)=O)NC(=O)CNC(=O)[C@@H]1CCCN1C(=O)[C@H](CCCCN)NC(=O)[C@H](Cc1ccccc1)NC(=O)[C@H](CCCNC(=N)N)NC(=O)[C@H](CC(C)C)NC(=O)[C@H](Cc1c[nH]c2ccccc12)NC(=O)[C@H](Cc1c[nH]cn1)NC(=O)[C@@H](N)CCCCN)C(=O)N[C@@H](Cc1ccc(O)cc1)C(=O)O [compound 9] (H-KHWLRFKPGQPMY-OH; N-terminus and C-terminus assumed) | <90 | 100 | 100 | 100 | 100 | active
CSCC[C@H](NC(=O)[C@@H]1CCCN1C(=O)[C@H](C)NC(=O)CNC(=O)[C@H](Cc1c[nH]c2ccccc12)NC(=O)[C@H](CCCCN)NC(=O)[C@H](CC(C)C)NC(=O)[C@@H](NC(=O)[C@@H](NC(=O)[C@H](Cc1c[nH]c2ccccc12)NC(=O)[C@H](Cc1c[nH]cn1)NC(=O)[C@@H](N)CCCCN)C(C)C)[C@@H](C)O)C(=O)N[C@@H](Cc1ccc(O)cc1)C(=O)O [compound 3] (H-KHWVTLKWGAPMY-OH; N-terminus and C-terminus assumed) | <90 | <90 | 100.61 | 100 | 100 | 
CSCC[C@H](NC(=O)[C@@H]1CCCN1C(=O)[C@H](C)NC(=O)CNC(=O)[C@H](CCCNC(=N)N)NC(=O)[C@H](CCCCN)NC(=O)[C@H](CC(C)C)NC(=O)[C@H](CCC(N)=O)NC(=O)[C@@H](NC(=O)[C@H](Cc1c[nH]c2ccccc12)NC(=O)[C@H](Cc1c[nH]cn1)NC(=O)[C@@H]1CCCN1)C(C)C)C(=O)N[C@@H](Cc1ccc(O)cc1)C(=O)O [compound 6] (H-PHWVQLKRGAPMY-OH; N-terminus and C-terminus assumed) | <90 |  | <90 | 100 | 100 | 
CC[C@H](C)[C@H](NC(=O)[C@@H](NC(=O)[C@H](CC(C)C)NC(=O)[C@H](Cc1c[nH]c2ccccc12)NC(=O)[C@H](Cc1c[nH]cn1)NC(=O)[C@@H]1CCCN1)[C@@H](C)O)C(=O)N[C@@H](CCCCN)C(=O)N1CCC[C@H]1C(=O)NCC(=O)N[C@@H](CCC(N)=O)C(=O)N1CCC[C@H]1C(=O)N[C@@H](CCSC)C(=O)N[C@@H](Cc1ccc(O)cc1)C(=O)O [compound 30] (H-PHWLTIKPGQPMY-OH; N-terminus and C-terminus assumed) |  |  |  | <90 | <90 | 
CSCC[C@H](NC(=O)[C@@H]1CCCN1C(=O)[C@H](CCC(N)=O)NC(=O)CNC(=O)[C@@H]1CCCN1C(=O)[C@H](CCCCN)NC(=O)[C@H](Cc1ccccc1)NC(=O)[C@H](CCCCN)NC(=O)[C@H](CC(C)C)NC(=O)[C@H](Cc1c[nH]c2ccccc12)NC(=O)[C@H](Cc1c[nH]cn1)NC(=O)[C@@H](N)CCCCN)C(=O)N[C@@H](Cc1ccc(O)cc1)C(=O)O [compound 13] (H-KHWLKFKPGQPMY-OH; N-terminus and C-terminus assumed) | <90 | 100 | 100 | 100 | 100 | active
CSCC[C@H](NC(=O)[C@@H]1CCCN1C(=O)[C@H](CCC(=O)O)NC(=O)CNC(=O)[C@@H]1CCCN1C(=O)[C@H](CCCCN)NC(=O)[C@H](Cc1ccccc1)NC(=O)[C@H](CCCCN)NC(=O)[C@H](CC(C)C)NC(=O)[C@H](Cc1ccccc1)NC(=O)[C@H](Cc1c[nH]cn1)NC(=O)[C@@H](N)Cc1c[nH]c2ccccc12)C(=O)N[C@@H](Cc1ccc(O)cc1)C(=O)O [compound 85] (H-WHFLKFKPGEPMY-OH; N-terminus and C-terminus assumed) | <90 |  | <90 | 100 | 100 | 
CC[C@H](C)[C@H](NC(=O)[C@H](Cc1c[nH]c2ccccc12)NC(=O)[C@H](CCCCN)NC(=O)[C@@H]1CCCN1)C(=O)N[C@@H](CCCNC(=N)N)C(=O)N[C@@H](CC(C)C)C(=O)N[C@@H](CCCCN)C(=O)N1CCC[C@H]1C(=O)NCC(=O)N[C@@H](CCC(N)=O)C(=O)N1CCC[C@H]1C(=O)N[C@@H](CCSC)C(=O)N[C@@H](Cc1ccc(O)cc1)C(=O)O [compound 19] (H-PKWIRLKPGQPMY-OH; N-terminus and C-terminus assumed) | <90 |  | <90 | 100 | 100 | 
CSCC[C@H](NC(=O)[C@@H]1CCCN1C(=O)[C@H](CCC(N)=O)NC(=O)CNC(=O)[C@H](CC(N)=O)NC(=O)[C@H](CCCCN)NC(=O)[C@H](CC(C)C)NC(=O)[C@H](CCCCN)NC(=O)[C@H](CC(C)C)NC(=O)[C@H](Cc1c[nH]c2ccccc12)NC(=O)[C@H](CCC(N)=O)NC(=O)[C@@H](N)CCCCN)C(=O)N[C@@H](Cc1ccc(O)cc1)C(=O)O [compound 91] (H-KQWLKLKNGQPMY-OH; N-terminus and C-terminus assumed) | <90 |  | <90 | 98.66 | 100 | 
CSCC[C@H](NC(=O)[C@H](CCCCN)NC(=O)[C@H](Cc1ccccc1)NC(=O)[C@H](CCC(N)=O)NC(=O)[C@@H](NC(=O)[C@H](CC(C)C)NC(=O)[C@H](Cc1c[nH]cn1)NC(=O)[C@@H](N)CCCCN)C(C)C)C(=O)NCC(=O)N[C@@H](CCC(N)=O)C(=O)N1CCC[C@H]1C(=O)N[C@@H](CCSC)C(=O)N[C@@H](Cc1ccc(O)cc1)C(=O)O [compound 22] (H-KHLVQFKMGQPMY-OH; N-terminus and C-terminus assumed) | <90 |  | <90 | 100 | 100 | 
CC[C@H](C)[C@H](NC(=O)[C@H](CCC(=O)O)NC(=O)CNC(=O)[C@H](Cc1c[nH]c2ccccc12)NC(=O)[C@H](Cc1c[nH]cn1)NC(=O)[C@@H]1CCCN1)C(=O)N[C@@H](CCCCN)C(=O)N1CCC[C@H]1C(=O)NCC(=O)N[C@@H](CCC(N)=O)C(=O)N[C@@H](CO)C(=O)N[C@@H](CCSC)C(=O)N[C@@H](Cc1ccc(O)cc1)C(=O)O [compound 139] (H-PHWGEIKPGQSMY-OH; N-terminus and C-terminus assumed) |  |  |  | <90 | <90 | 
CC[C@H](C)[C@H](NC(=O)[C@H](CCCCN)NC(=O)[C@H](CC(C)C)NC(=O)[C@@H](NC(=O)[C@H](Cc1c[nH]cn1)NC(=O)[C@@H](N)Cc1c[nH]c2ccccc12)[C@@H](C)O)C(=O)N[C@@H](CCCCN)C(=O)N[C@@H](CCCCN)C(=O)NCC(=O)N[C@@H](CCC(=O)O)C(=O)N1CCC[C@H]1C(=O)N[C@@H](CCSC)C(=O)N[C@@H](Cc1ccc(O)cc1)C(=O)O [compound 15] (H-WHTLKIKKGEPMY-OH; N-terminus and C-terminus assumed) | <90 |  | <90 | 100 | 100 | 
CC[C@H](C)[C@H](NC(=O)[C@H](Cc1c[nH]c2ccccc12)NC(=O)[C@H](Cc1c[nH]cn1)NC(=O)[C@@H](N)Cc1c[nH]c2ccccc12)C(=O)N[C@@H](CCC(N)=O)C(=O)N[C@@H](CC(C)C)C(=O)N[C@@H](CCCCN)C(=O)N[C@@H](CCCCN)C(=O)NCC(=O)N[C@@H](CCC(=O)O)C(=O)N1CCC[C@H]1C(=O)N[C@@H](CCSC)C(=O)N[C@@H](Cc1ccc(O)cc1)C(=O)O [compound 71] (H-WHWIQLKKGEPMY-OH; N-terminus and C-terminus assumed) | <90 |  | <90 | 100 | 100 | 
CC[C@H](C)[C@H](NC(=O)[C@H](CCC(N)=O)NC(=O)[C@H](CC(C)C)NC(=O)[C@H](Cc1ccccc1)NC(=O)[C@H](Cc1c[nH]cn1)NC(=O)[C@@H](N)Cc1c[nH]c2ccccc12)C(=O)N[C@@H](CCCCN)C(=O)N1CCC[C@H]1C(=O)NCC(=O)N[C@@H](CCC(N)=O)C(=O)NCC(=O)N[C@@H](CCSC)C(=O)N[C@@H](Cc1ccc(O)cc1)C(=O)O [compound 90] (H-WHFLQIKPGQGMY-OH; N-terminus and C-terminus assumed) | <90 |  | <90 | 99.27 | 100 | 
